The values that follow are results of earlier work, collected in US20160151380A1, “THERAPIES FOR DISEASES CAUSED BY ARTHROPOD-BORNE PARASITES” (THE REGENTS OF THE UNIVERSITY OF CALIFORNIA, priority 2013, published 2016).

As usually defined, the IC50 is the midpoint of a concentration-inhibition curve. By Kd is commonly meant the equilibrium constant for the complex coming apart. One may read the Ki as the equilibrium dissociation constant of an inhibitor or competing ligand from its target.

Among the targets are MAPK14 p38 (Homo sapiens, UniProt Q16539); JNK1 (Homo sapiens, UniProt P45983); JNK3 (Homo sapiens, UniProt P53779).
What all share (conditions): cited from earlier work
The next series deals with T1, PKCepsilon (Homo sapiens, UniProt Q02156).
T1 sequence (Q02156 1-737): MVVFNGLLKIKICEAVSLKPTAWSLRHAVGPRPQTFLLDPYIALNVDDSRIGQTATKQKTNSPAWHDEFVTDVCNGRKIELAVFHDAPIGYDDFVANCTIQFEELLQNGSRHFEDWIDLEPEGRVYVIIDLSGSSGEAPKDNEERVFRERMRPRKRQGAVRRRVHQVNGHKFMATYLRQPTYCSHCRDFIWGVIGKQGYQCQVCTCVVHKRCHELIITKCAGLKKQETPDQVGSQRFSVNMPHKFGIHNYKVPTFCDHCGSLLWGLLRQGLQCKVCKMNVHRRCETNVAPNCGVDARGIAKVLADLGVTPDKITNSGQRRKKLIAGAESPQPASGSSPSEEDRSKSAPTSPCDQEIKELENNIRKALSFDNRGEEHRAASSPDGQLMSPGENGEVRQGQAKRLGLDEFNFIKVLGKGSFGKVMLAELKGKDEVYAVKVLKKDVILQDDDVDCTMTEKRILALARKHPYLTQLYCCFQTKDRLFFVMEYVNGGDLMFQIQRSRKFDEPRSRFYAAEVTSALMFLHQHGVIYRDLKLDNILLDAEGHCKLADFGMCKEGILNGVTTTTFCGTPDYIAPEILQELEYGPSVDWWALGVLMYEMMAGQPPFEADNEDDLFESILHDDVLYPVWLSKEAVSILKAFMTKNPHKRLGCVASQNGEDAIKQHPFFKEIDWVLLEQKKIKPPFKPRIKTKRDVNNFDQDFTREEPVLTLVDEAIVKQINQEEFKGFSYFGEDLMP

Where only a bound is given, the exact number is not on record here.

Chain of JNK1 (P45983 whole entry, species assumed): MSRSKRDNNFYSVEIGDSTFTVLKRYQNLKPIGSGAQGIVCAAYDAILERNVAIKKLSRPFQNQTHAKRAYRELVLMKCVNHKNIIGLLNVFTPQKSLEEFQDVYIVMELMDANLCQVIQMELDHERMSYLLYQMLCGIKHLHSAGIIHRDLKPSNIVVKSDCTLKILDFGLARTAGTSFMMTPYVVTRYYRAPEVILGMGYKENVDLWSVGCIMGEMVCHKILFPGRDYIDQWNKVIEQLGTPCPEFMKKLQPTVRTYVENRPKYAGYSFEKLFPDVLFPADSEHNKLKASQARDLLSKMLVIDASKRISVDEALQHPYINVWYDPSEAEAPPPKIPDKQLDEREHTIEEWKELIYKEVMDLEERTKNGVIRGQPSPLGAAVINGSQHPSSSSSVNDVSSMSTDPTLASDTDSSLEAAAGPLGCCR
Chain of MAPK14 p38 (Q16539 whole entry): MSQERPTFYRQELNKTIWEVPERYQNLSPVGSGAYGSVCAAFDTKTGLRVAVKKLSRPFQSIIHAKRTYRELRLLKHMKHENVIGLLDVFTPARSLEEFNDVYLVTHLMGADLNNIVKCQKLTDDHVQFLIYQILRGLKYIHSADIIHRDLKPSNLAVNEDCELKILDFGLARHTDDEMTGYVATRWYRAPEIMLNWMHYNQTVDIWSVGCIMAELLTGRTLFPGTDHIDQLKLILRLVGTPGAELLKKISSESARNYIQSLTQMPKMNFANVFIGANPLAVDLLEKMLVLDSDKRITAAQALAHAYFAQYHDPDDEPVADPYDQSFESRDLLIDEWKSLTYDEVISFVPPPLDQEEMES
Chain of JNK3 (P53779 whole entry, species assumed): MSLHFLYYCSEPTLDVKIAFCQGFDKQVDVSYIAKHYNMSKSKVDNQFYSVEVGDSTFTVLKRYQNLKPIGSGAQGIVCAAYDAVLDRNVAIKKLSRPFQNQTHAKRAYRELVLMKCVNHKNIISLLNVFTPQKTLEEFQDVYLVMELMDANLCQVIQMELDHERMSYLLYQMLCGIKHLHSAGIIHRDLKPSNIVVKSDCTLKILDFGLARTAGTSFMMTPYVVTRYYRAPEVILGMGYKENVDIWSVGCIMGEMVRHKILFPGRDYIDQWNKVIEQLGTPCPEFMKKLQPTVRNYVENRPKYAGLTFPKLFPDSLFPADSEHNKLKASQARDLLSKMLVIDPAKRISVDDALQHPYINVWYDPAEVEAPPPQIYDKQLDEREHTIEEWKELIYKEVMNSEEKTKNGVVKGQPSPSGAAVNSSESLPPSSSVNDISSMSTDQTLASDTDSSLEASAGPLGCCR

For `Cc1ccc(C(=O)Nc2cccc(C(F)(F)F)c2)cc1-c1ccc2nc(N)ncc2c1` [2ofv], the IC50 at MAPK14 p38 is 6 nM.

With `Cc1cccc(-c2nn(C(=S)Nc3ccccc3)cc2-c2ccnc3ccccc23)n1` [A-83-01], the IC50 at MAPK14 p38 was 100 nM.

As to `COc1cc2ncnc(Nc3cccc(Cl)c3)c2cc1OC` [AG1478], on MAPK14 p38, the IC50 is 560 nM.

Regarding `N#CC(c1ccnc(NCCc2cccnc2)n1)c1nc2ccccc2s1` (stereo not drawn) [AS601245], on JNK1, the IC50 is 150 nM.

Regarding `O=C1NC(=O)c2c1c1c3ccccc3[nH]c1c1[nH]c3ccccc3c21` [Arcyriaflavin A], on PKCepsilon (PKCepsilon), the IC50 was 310 nM.

In the case of `CC(C)(C)c1nc2c3cc[nH]c(=O)c3c3cc(F)ccc3c2[nH]1` [BCP9000906], at PKCepsilon (PKCepsilon), the IC50 is 500 nM.

In the case of `COc1cccc(Nc2ncnn3ccc(CN4CC[C@@H](N)[C@H](O)C4)c23)c1` [BMS-690514], on PKCepsilon (PKCepsilon), the Kd is less than 400 nM.

In the case of `CC1=C2N=C(C=C3NC(=Cc4[nH]c(c(CCC(=O)O)c4CC(=O)O)Cc4[nH]c1c(CC(=O)O)c4CCC(=O)O)C(CCC(=O)O)C3(C)CC(=O)O)C(CCC(=O)O)C2(C)CC(=O)O` (stereo not drawn) [BX517], the IC50 on MAPK14 p38 and on JNK1 was greater than 900 nM in each case.

With `CCS(=O)(=O)N1CC(CC#N)(n2cc(-c3ncnc4[nH]ccc34)cn2)C1` [Baricitinib], the IC50 at JNK1 was greater than 1000 nM.

Turning to `O=C1NC(=O)C(c2c[nH]c3ccccc23)=C1c1c[nH]c2ccccc12` [Bisindolylmaleimide IV, 3,4-bis(1H-indol-3-yl)pyrrole-2,5-dione], the IC50 at PKCepsilon (PKCepsilon) is 190 nM.

Turning to `CN(C)CCCn1cc(C2=C(c3c[nH]c4ccccc34)C(=O)NC2=O)c2ccccc21` [Bisindolylmaleimide I], the IC50 at PKCepsilon (PKCepsilon) is less than 25 nM.

Take `CCN1CCOCCn2cc(c3ccccc32)C2=C(C(=O)NC2=O)c2cn(c3ccccc23)CCOCC1` [CHEMBL103055]: at PKCepsilon (PKCepsilon), the IC50 is 75 nM.

In the case of `CCNc1nnc2ccc(-c3ocnc3-c3ccc(F)cc3)cn12` [CHEMBL213451], on MAPK14 p38, the IC50 was 7.6 nM.

On to `CC(C)c1nnc2ccc(-c3ocnc3-c3ccc(F)cc3Cl)cn12` [CHEMBL215652], for which the IC50 on MAPK14 p38 was 2.5 nM.

Consider `O=C(OC1CCCC1Cc1ccc(O)cc1)c1cc(O)c(C(=O)c2c(O)cccc2C(=O)O)c(O)c1` (stereo not drawn) [CHEMBL295806], for which, at PKCepsilon (PKCepsilon), the concentration for half-maximal inhibition (IC50) was 120 nM.

On to `N=C(N)SCCCn1c(-c2cc3ccccc3s2)c(C2=CC(=O)NC2=O)c2ccccc21` [CHEMBL350335], for which the IC50 at PKCepsilon (PKCepsilon) is 10 nM.

With `Cc1ccc(C(=O)Nc2ccon2)cc1Nc1ncnc(NC2CCCC2)c1C#N` [CHEMBL383172], the Ki at MAPK14 p38 is 1.6 nM.

For the compound `Cc1ccc(-n2nc(C(C)(C)C)cc2NC(=O)Nc2cccc3ccccc23)cc1` [CHEMBL420047], at MAPK14 p38, the Kd was 1 nM.

On to `Cc1c(Nc2c(C#N)cncc2/C=C/CCN2CCC[C@@H](N)C2)ccc2[nH]ccc12` [CHEMBL606245], for which the IC50 on PKCepsilon (PKCepsilon) was 14 nM.

Take `N#C/C(=C1/Nc2ccccc2S1)c1ccnc(NCCc2cccnc2)n1` [CHEMBL1788116]: the IC50 at JNK1 was 150 nM.

On to `Cc1ccc(NC(=O)c2cccc(N3CCCCC3)c2)cc1-c1ccc(C(=O)NCC2CC2)cc1` [CHEMBL1964275], for which the Kd at MAPK14 p38 was less than 10 nM.

As for `COCCOc1ccc2c(c1)ncn2-c1ccc2cccc(N3CCC(N)CC3)c2n1` [CP673451], at JNK1, the IC50 was greater than 1000 nM.

With `O=C(O)c1ccc(-c2c[nH]c3ncc(-c4ccccc4)cc23)cc1C1CCCC1` [GSK650394A], on JNK3, the IC50 is greater than 600 nM.

Take `Cn1c2ccccc2c2c3c(c4c5ccccc5n(CCC#N)c4c21)CNC3=O` [Go6976, 5,6,7,13-Tetrahydro-13-methyl-5-oxo-12H-indolo[2,3-a]pyrrolo[3,4-c]carbazole-12-propa-nenitrile]: the IC50 at JNK3 is greater than 300 nM.

With `COc1ccc2c(c1)c(C1=C(c3c[nH]c4ccccc34)C(=O)NC1=O)cn2CCCN(C)C` [Go6983, 3-[1-[3-(dimethylamino)propyl]-5-methoxyindol-3-yl]-4-(1H-indol-3-yl)pyrrole-2,5-dione], the IC50 at PKCepsilon (PKCepsilon) is greater than 150 nM.

As to `Cc1cncc2cccc(S(=O)(=O)N3CCCN(C(=O)CN)C[C@@H]3C)c12` [H-1152; Glycyl], on PKCepsilon (PKCepsilon), the IC50 was 500 nM.

With `NC(=O)Nc1sc(-c2ccc(F)cc2)cc1C(N)=O` [IKK-2 Inhibitor IV], the Kd at JNK1 was less than 1250 nM.

Regarding `C#Cc1cccc(Nc2ncnc3cc4c(cc23)OCCOCCOCCO4)c1` [Icotinib], on PKCepsilon (PKCepsilon), the IC50 was greater than 1000 nM.

On to `CC(C)[C@H]1C(=O)N[C@H](CO)Cc2c[nH]c3cccc(c23)N1C` [Indolactam V], for which, on PKCepsilon, the Ki is 7.7 nM.

With `O=C(c1ccc(Nc2nccc(-c3cc4ccccc4s3)n2)cc1)N1CCC(N2CCCC2)CC1` [K00596a], the IC50 on JNK1 is 100 nM.

Regarding `CCCCCCOC(=O)[C@]1(O)C[C@@H]2O[C@@]1(C)n1c3ccccc3c3c4c(c5c6ccccc6n2c5c31)C(=O)NC4` [KT5720], the 50% inhibitory concentration (IC50) at JNK1 is less than 800 nM.

In the case of `BrCBr` [Kinome_3024], the Ki on JNK1 is 3 nM.

As for `CCCC(=O)NC1=NC2C(N=CN2C2OC3OP(=O)(O)OC3C2OC(=O)CCC)C(=O)N1` (stereo not drawn) [Kinome_3028], on JNK1, the Ki is 3 nM.

`NC(N)=NC(=O)Cc1c(Cl)cccc1Cl` [Kinome_3519]: on MAPK14 p38, the inhibitory constant (Ki) is 0.2 nM.

Take `c1ccc(-c2[nH]ncc2-c2ccnc3ccccc23)nc1` [LY364947]: the IC50 on MAPK14 p38 is 740 nM.

Take `CCN(CC)C(=O)c1ccc(Nc2nc(OCC3CCCCC3)c3[nH]cnc3n2)cc1` [NU6140]: the IC50 on JNK1 is 500 nM.

Regarding `O=C1c2ccccc2-c2nc3nnnn3nc21` [PDK1/Akt/Flt Inhibitor], the IC50 on JNK3 is 500 nM.

As for `O=C1NC(=O)C(c2cn(CCCn3ccnc3)c3ccccc23)=C1Nc1ccccc1` [PKCb Inhibitor, 3-anilino-4-[1-(3-imidazol-1-ylpropyl)indol-3-yl]pyrrole-2,5-dione], the IC50 at PKCepsilon (PKCepsilon) was greater than 50 nM.

In the case of `O=C1Nc2ccc3ncsc3c2/C1=C/c1cnc[nH]1` [PKR Inhibitor], the IC50 on PKCepsilon (PKCepsilon) is greater than 150 nM.

In the case of `CC(C)(C)n1nc(Cc2cccc3ccccc23)c2c(N)ncnc21` [PP1 Analog II; 1NM-PP1], the 50% inhibitory concentration (IC50) on JNK1 was 140 nM.

As to `Nc1ncnc2c1c(-c1cnc3[nH]ccc3c1)nn2C1CCCC1` [PP121], on PKCepsilon (PKCepsilon), the IC50 is less than 750 nM.

Take `CNC(=O)c1cc(Oc2ccc(NC(=O)Nc3ccc(Cl)c(C(F)(F)F)c3)c(F)c2)ccn1` [Regorafenib]: the half-maximal inhibitory concentration (IC50) at MAPK14 p38 was less than 100 nM.

Take `Cn1cc(C2=C(c3cn(CCCSC(=N)N)c4ccccc34)C(=O)NC2=O)c2ccccc21` [Ro-31-8220, methanesulfonic acid; 3-[3-[4-(1-methylindol-3-yl)-2,5-dioxopyrrol-3-yl]indol-1-yl]propyl carbamimidothioate]: the IC50 on PKCepsilon (PKCepsilon) was 10 nM.

`CN(C)C[C@@H]1CCn2cc(c3ccccc32)C2=C(C(=O)NC2=O)c2cn(c3ccccc23)CCO1` [Ruboxistaurin]: the IC50 at JNK3 was greater than 900 nM.

As for `O=C1NC(=O)c2c1c1c3ccccc3n3c1c1c2c2ccccc2n1C1CCC3O1` [SB218078], the IC50 at PKCepsilon (PKCepsilon) was greater than 150 nM.

Consider `Cc1cc(F)ccc1-c1nc(NC(CO)CO)nc2c1ccc(=O)n2-c1c(F)cccc1F` [SB681323], for which the IC50 on MAPK14 p38 is less than 100 nM.

`CN1CCC(CNc2ccc3ncc(-c4cccc(OC(F)(F)F)c4)n3n2)CC1` [SGI-1776]: the IC50 at JNK3 is greater than 1000 nM.

On to `Oc1cccc2cccnc12` [SPDD01923], for which, at MAPK14 p38, the half-maximal inhibitory concentration (IC50) was 0.11 nM.

For the compound `C[C@@H](OC(=O)c1ccc2c(c1)OCCO2)C(=O)Nc1ccc(Cl)cc1Cl` [SureCN2579964], at PKCepsilon (PKCepsilon), the half-maximal inhibitory concentration (IC50) is less than 750 nM.

In the case of `CCc1cccc(OCCOCCN2CC(C)OC(C)C2)c1` (stereo not drawn) [SureCN2934634], the IC50 on PKCepsilon (PKCepsilon) is 1.6 nM.

Take `CC1CCCN(CCOCCOc2ccc(Cl)cc2C(C)(C)C)C1` (stereo not drawn) [SureCN2934911]: the IC50 on PKCepsilon (PKCepsilon) is 36 nM.

Take `CCOC(=O)C(NC(=O)CCC(=O)OCC(=O)C1(O)CCC2C3CCC4=CC(=O)CCC4(C)C3C(O)CC21C)C(O)c1ccccc1` (stereo not drawn) [SureCN3774124]: the IC50 on PKCepsilon (PKCepsilon) was 330 nM.

With `CN(C)c1ccc(C(=N)c2ccc(N(C)C)cc2)cc1` [SureCN3936664], on MAPK14 p38, the half-inhibitory concentration (IC50) is 5 nM.

Regarding `CCCCCCCCCCCCCC(=NO)c1cc(OC)ccc1O` [SureCN4219451], the IC50 on MAPK14 p38 was 1.8 nM.

Turning to `CCC(C)C(C(=O)O)N1C(=O)C(=Cc2c(F)cccc2Cl)SC1=S` (stereo not drawn) [SureCN4762364], at MAPK14 p38, the IC50 was 3.2 nM.

As for `O=C(COC(=O)C1COc2ccccc2O1)Nc1cc(C(F)(F)F)ccc1N1CCOCC1` (stereo not drawn) [SureCN4875304], the IC50 on MAPK14 p38 was 540 nM.

As for `COc1ccc2c(Oc3ccc(NC(=O)c4c(C)n(CC(C)(C)O)n(-c5ccccc5)c4=O)nc3)ccnc2c1` [SureCN5495613], the IC50 on MAPK14 p38 was 9 nM.

`COc1c(Br)cc(Br)cc1/C=N\Nc1nc(NCc2ccccc2)nc(N2CCOCC2)n1` [SureCN5757856]: the IC50 on PKCepsilon (PKCepsilon) is 140 nM.

In the case of `CN1CC=C(c2c[nH]c3ccc(-c4cccs4)cc23)CC1` [SureCN10063060], the Ki on JNK1 was greater than 1000 nM.

Regarding `COc1ccc(-c2cc3nccn3c(Nc3ncccc3C(N)=O)n2)cc1OC` [Syk Inhibitor IV], the concentration for half-maximal inhibition (IC50) on JNK3 is less than 400 nM.

In the case of `Cc1ccc(NC(=O)c2cccc(N(C)C)c2)cc1NC(=O)c1ccc(O)cc1` [ZM336372], the IC50 on MAPK14 p38 is 180 nM.

Turning to Cdk1/2 Inhibitor III, the IC50 on PKCepsilon (PKCepsilon) was greater than 50 nM.
